Measured values published in patent US7417109B2, “Polymers for delivering nitric oxide in vivo” (Duke University, priority 1996, dated 2008).

Legend:
[1] = Half-life and NO delivery in physiological solution (NO by method of Saville); format: physicochemical
Method: In addition, the half-lives for these compositions in physiological solution were measured. The half-life is time required for the composition to lose one half of its bound NO. The amount of NO in the composition is determined by the method of Saville, as described in Example 13.
The concentration of R—S—NO groups in a sample is based on the method reported in Saville, Analyst 83:620 (1958). By this method, R—S—NO groups are converted into an azo dye. The concentration of this dye is determined by measuring the absorbance at 540 nm (ε˜50,000 M^−1 cm^−1). The procedure is as follows:
A given volume (50 μl−1 m) of the sample to be assayed is added to an equivalent volume of solution A and solution B. The two samples are set aside for 5 minutes to allow formation of the diazonium salt, after which an equivalent volume of solution C is added to each mixture. Color formation, indicative of the azo dye product, is usually complete by 5 minutes. The sample absorbance is then read spectrophotometrically at 540 nm. The RSNO is quantified as the difference in absorbance between solution B and A. (i.e. B−A). In the event that the background nitrite concentration is high (i.e. increased background in A), the accuracy of the measurement can be increased by the addition of an equivalent volume of 0.5% ammonium sulfamate in acid (45 mM) 5 minutes prior to the addition of sulfanilamide. […]

[2] = cited from earlier work

Row | Compound | time able to deliver NO [1] | lifetime in physiological solution [2]
1 | CC(C)(SN=O)[C@H](N)C(=O)O [S-nitroso-penicillamine] | no more than one | 
2 | CC(C)(SN=O)C(N)C(=O)O (racemic) [S-nitroso-D,L-penicillamine] |  | no more than about an hour
3 | N[C@@H](CSN=O)C(=O)O [S-nitrosocysteine] |  | no more than about an hour
